Measurements taken from patent publication US10899781B2, “Platinum complex, its preparation and therapeutic use” (City University of Hong Kong, priority 2018, dated 2021).

Columns and labels:
[1] = test system: MRC-5 normal human lung fibroblasts; experiment: Cytotoxicity, MTT assay; type: cell-based; conditions: in dark, MTT at 40 h
Protocol: (§1) The biological activity of Complex A was subsequently evaluated. A2780 cells were maintained in Roswell Park Memory Institution (RPMI) 1640 medium supported with 10% FBS, 2 mM L-glutamine, and 100 unit/mL penicillin/streptomycin. MCF-7 cells were cultured in Dulbecco's modified Eagle's medium supported with 10% FBS and 100 unit/mL penicillin/streptomycin. MRC-5 cells were maintained in Eagle's minimum essential medium supported with 10% FBS, 1 mM sodium pyruvate, 2 mM L-glutamine, 1 mM non-essential amino acid and 100 unit/mL penicillin/streptomycin. All the cells were incubated in a humidified incubator at 37° C. with 5% CO2
Cytotoxicity test was performed by exposing the cancer cells with Complex A. The viability of cancer cells exposed was evaluated by means of MTT assay. Cells were seeded in 96-well plates at a density of 3,000 cells per well and incubated until the cell confluency reached 50%. Then, the medium was removed and replaced with fresh medium containing different concentrations of complexes with 1% DMF. […] The absorbance at 570 nm and 730 nm of each well was measured by using a microplate reader (BioTek PowerWave XS).
The cytotoxicity of Complex A was then evaluated, using oxaliplatin and PPA as controls. Cells were treated with the compounds for 8 h, followed by irradiation or incubation in the dark, and the cell viability was measured by the MTT assay after 40 h. […]

[2] = test system: A2780cisR (platinum-resistant A2780 cells); experiment: Cytotoxicity, MTT assay; type: cell-based, human; conditions: for IC50: A2780cisR, 8 h treatment
Protocol: as §1
(§2) Cytotoxicity test was performed by exposing the cancer cells with Complex A. The viability of cancer cells exposed was evaluated by means of MTT assay. Cells were seeded in 96-well plates at a density of 3,000 cells per well and incubated until the cell confluency reached 50%. Then, the medium was removed and replaced with fresh medium containing different concentrations of complexes with 1% DMF. After 8 h, the medium was aspirated, the well was washed with PBS for twice, and Earle's balanced salt solution (EBSS) was added. […] The EBSS was removed, and fresh complete cell culture medium was added to each well. After 40 h, the medium was changed to serum-free medium containing 1 mg/mL MTT. After 2 h additional incubation, the medium was removed, and DMSO (200 μL) was delivered to each well to dissolve the formed purple formazan. The absorbance at 570 nm and 730 nm of each well was measured by using a microplate reader (BioTek PowerWave XS).
(§3) The cytotoxicity of Complex A was then evaluated, using oxaliplatin and PPA as controls. Cells were treated with the compounds for 8 h, followed by irradiation or incubation in the dark, and the cell viability was measured by the MTT assay after 40 h. Complex A is non-toxic to the tested cells in the dark, and is very active under irradiation.

MCF-7 cells = experiment: Cytotoxicity, MTT assay; type: cell-based, human
Protocol: as §1, §2, §3

[3] = test system: A2780 ovarian carcinoma cells; experiment: Cytotoxicity, MTT assay; type: cell-based, human; conditions: 8 h treatment
Protocol: as §1, §2, §3

A2780 cells = experiment: Cellular accumulation of platinum by ICP-MS; type: cell-based, human; conditions: after 8 h
Protocol: FIG. 5 is a plot showing the accumulation of Complex A in A2780 cells after treatment with 0.5 μM Complex A for 1 to 12 h.
The inventors first tested the cellular accumulation of Complex A by ICP-MS. Platinum accumulation in A2780 cells increases dramatically over time before 8 h and very slowly increases over time after 8 h. Thus, an incubation time of 8 h is selected for the following biological assays.
The cellular accumulation levels of Pt in A2780 cells treated with Complex A and oxaliplatin after 8 h are 6.4±1.2 and 0.9±0.1 ng Pt/106 cells, respectively. […] The cellular distribution of Complex A was also observed.

Fluorescence lifetime = type: physicochemical; conditions: in DMF
Text: The inventors further investigated the mechanism of the reduction Complex A. No overlap was observed between the absorbance spectra of PPA and the dihydroxyl Pt(IV) compound [Pt(DACH)(OH)2(ox)]. Therefore, direct energy transfer may not occur between PPA and the Pt(IV) center. […] The normalized fluorescence intensity of PPA and Complex A is identical, and the fluorescence lifetime of Complex A is 7 ns in DMF, which is the same as PPA. […] Since PPA is able to generate reactive oxygen species (ROS) and singlet oxygen through type I and type II photo process, respectively, the inventors used a hydroxyl radical scavenger, DMSO, and a singlet oxygen scavenger, NaN3, to investigate the electron transfer process. […] Thus, without to be bound by theory, the inventors believe that hydroxy radical is involved in the reaction, and the elimination of hydroxy radical may accelerate the reaction. Furthermore, it was observed that the reduction rate is related to the water content in the system.

[4] = Photoactivation (photo-reduction) of Complex A under 650 nm irradiation, HPLC; type: physicochemical; conditions: mixture of the compound and PPA in the presence of ascorbate
Protocol: FIG. 3 is a combined RP-HPLC chromatogram showing the intensity of Complex A and PPA after 10 μM Complex A in PBS buffer containing 1% DMF and 1 mM ascorbate was subject to irradiation at 650 nm with a power density of 7 mW/cm^2 for different time periods (from 0 min to 30 min). Peak 1 corresponds to Complex A, and Peak 2 corresponds to PPA.
FIG. 4 is a plot showing the amount of Complex A and PPA after subjecting to irradiation at 650 nm calculated from the results in FIG. 3.
The photoactivation property of Complex A was investigated. Buffer solution containing 10 μM Complex A with 1 mM ascorbate in a quartz cuvette was irradiated with LED lamp (650 nm, 7 mW/cm^2) under stirring. Samples were analyzed by HPLC. […] After irradiation for 10 min, 81% of Complex A was reduced, and most of the complex was reduced within 30 min. Irradiation of Complex A without the presence of ascorbate also leads to the release of PPA and oxaliplatin, but the reaction speed is much slower.
The inventors further investigated the mechanism of the reduction Complex A. No overlap was observed between the absorbance spectra of PPA and the dihydroxyl Pt(IV) compound [Pt(DACH)(OH)2(ox)]. […] The normalized fluorescence intensity of PPA and Complex A is identical, and the fluorescence lifetime of Complex A is 7 ns in DMF, which is the same as PPA. […]

[5] = with irradiation at 650 nm (7 mW/cm^2) for 15 min, MTT at 40 h after irradiation
[6] = Homo sapiens, light or radiation study, with irradiation at 650 nm (7 mW/cm^2) for 15 min, MTT at 40 h after irradiation
[7] = Homo sapiens, in the dark, MTT at 40 h

O=C1[O][Pt]2([NH][C@@H]3CCCC[C@H]3[NH]2)[O]C1=O [Oxaliplatin, oxaliplatin]
IC50 ([1]; 8 h treatment): 122 ± 5.2 µM
IC50 ([2]; in the dark, MTT at 40 h): 162 ± 9 µM
IC50 [2, 5]: 185 ± 8 µM
resistant factor ([2]; IC50 towards cisplatin-resistant cells divided by IC50 towards non-resistant cells (A2780cisR / A2780)): 2.7
IC50 (MCF-7 cells; 8 h treatment, in the dark, MTT at 40 h): 110 ± 4.3 µM
IC50 (MCF-7 cells; 8 h treatment, with irradiation at 650 nm (7 mW/cm^2) for 15 min, MTT at 40 h after irradiation): 78.6 ± 8.7 µM
IC50 ([3]; in the dark, MTT at 40 h): > 40 µM
IC50 [3, 5]: > 40 µM
cellular accumulation levels of Pt (A2780 cells): 0.9±0.1 ng Pt/106 cells

C=Cc1c(C)c2cc3nc(c4c5[nH]c(cc6nc(cc1[nH]2)C(C)=C6CC)c(C)c5C(=O)C4)[C@@H](CCC(=O)O)[C@@H]3C [PPA, pyropheophorbide a]
IC50 ([1]; Homo sapiens, MRC5, 8 h treatment): > 10 µM
fluorescence lifetime (Fluorescence lifetime): 7 ns
IC50 [2, 6]: 0.23 ± 0.01 µM
IC50 [2, 7]: > 10 µM
IC50 (MCF-7 cells; Homo sapiens, MCF7, 8 h treatment, in the dark, MTT at 40 h): > 10 µM
IC50 (MCF-7 cells; Homo sapiens, MCF7, light or radiation study, 8 h treatment, with irradiation at 650 nm (7 mW/cm^2) for 15 min, MTT at 40 h after irradiation): 0.2 ± 0.02 µM
IC50 [3, 7]: > 10 µM
IC50 [3, 6]: 0.34 ± 0.05 µM

[Pt(DACH)(OH)2(ox)] [[(Pt(DACH)(OH)2(ox))]]
reduction under irradiation [4]: cannot be reduced
